Data taken from BindingDB's records for doi:10.1124/jpet.104.075069 (Targacept, 2005).

What was measured:
[1] = target: Neuronal acetylcholine receptor subunit alpha-4 (Rattus norvegicus, UniProt P09483)
[2] = target: Neuronal acetylcholine receptor subunit alpha-7 (Rattus norvegicus, UniProt Q05941)
Sequence of Neuronal acetylcholine receptor subunit alpha-7 (Q05941 whole entry): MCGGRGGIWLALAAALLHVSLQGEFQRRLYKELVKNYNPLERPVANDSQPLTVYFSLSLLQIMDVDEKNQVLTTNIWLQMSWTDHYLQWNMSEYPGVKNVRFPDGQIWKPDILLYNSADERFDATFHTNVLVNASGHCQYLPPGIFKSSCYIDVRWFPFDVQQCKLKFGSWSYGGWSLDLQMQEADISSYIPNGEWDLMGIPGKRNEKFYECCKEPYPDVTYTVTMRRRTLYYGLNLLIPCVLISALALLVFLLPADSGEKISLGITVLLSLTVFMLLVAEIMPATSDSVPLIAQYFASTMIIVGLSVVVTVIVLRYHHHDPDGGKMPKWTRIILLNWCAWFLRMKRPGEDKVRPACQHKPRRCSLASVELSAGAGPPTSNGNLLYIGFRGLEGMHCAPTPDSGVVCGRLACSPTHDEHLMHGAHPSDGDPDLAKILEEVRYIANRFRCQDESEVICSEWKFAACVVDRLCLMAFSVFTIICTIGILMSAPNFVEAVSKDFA

Sequence of Neuronal acetylcholine receptor subunit alpha-4 (P09483 whole entry): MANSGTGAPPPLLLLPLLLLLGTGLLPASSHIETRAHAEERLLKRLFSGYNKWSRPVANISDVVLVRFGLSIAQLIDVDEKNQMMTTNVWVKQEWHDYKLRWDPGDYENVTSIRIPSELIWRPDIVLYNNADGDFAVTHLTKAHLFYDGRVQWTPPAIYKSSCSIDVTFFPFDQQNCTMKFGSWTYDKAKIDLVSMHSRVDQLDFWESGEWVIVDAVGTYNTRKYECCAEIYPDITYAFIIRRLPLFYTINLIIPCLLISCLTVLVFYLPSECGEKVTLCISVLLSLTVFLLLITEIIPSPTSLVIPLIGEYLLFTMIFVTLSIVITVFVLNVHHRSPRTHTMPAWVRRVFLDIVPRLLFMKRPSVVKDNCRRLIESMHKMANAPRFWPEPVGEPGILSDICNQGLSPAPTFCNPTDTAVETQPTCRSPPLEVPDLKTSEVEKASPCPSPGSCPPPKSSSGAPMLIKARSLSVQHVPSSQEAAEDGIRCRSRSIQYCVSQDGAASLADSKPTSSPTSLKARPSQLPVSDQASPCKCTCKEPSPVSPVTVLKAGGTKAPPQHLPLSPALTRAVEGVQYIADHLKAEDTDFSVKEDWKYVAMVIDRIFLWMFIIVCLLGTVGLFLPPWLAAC

Structure (SMILES)	Ki [1]	Ki [2]
C[N+](C)(C)CCOC(N)=O [(2-Hydroxyethyl)trimethyl ammonium chloride carbamate]	66.4 nM	9920 nM
c1cncc(OCC2CCN2)c1 (stereo not drawn) [A-85380]	–	54.9 nM
Cc1cc(C2CCCN2C)on1 (stereo not drawn) [ABT-418]	4.69 nM	1970 nM
O=c1cccc2n1CC1CNCC2C1 (stereo not drawn) [CAS_485-35-8]	0.2 nM	1140 nM
CNC(=O)OCC[N+](C)(C)C [CAS_14721-69-8]	2.51 nM	4350 nM
CCN1CC2(COC(=O)c3ccccc3-n3c(O)cc(C)c3O)CCC(OC)C34C5CC6C(OC)CC(O)(C5C6OC)C(O)(C(OC)C23)C14 (stereo not drawn) [CAS_21019-30-7]	585 nM	–
COc1ccc(C=C2CCCN=C2c2cccnc2)c(OC)c1 [CAS_156223-05-1]	278 nM	596 nM
COC1CC=C2CCN3CCC4=C(CC(=O)OC4)C23C1 (stereo not drawn) [NSC_31762]	24.6 nM	7700 nM
C#Cc1cncc(C2CCCN2C)c1 (stereo not drawn) [NSC_6442277]	0.5 nM	14400 nM
c1cncc(C2CC3CCN2CC3)c1 (stereo not drawn) [TC-2429]	1 nM	12.4 nM
